Results as given in patent US20180228780A1, “3-(1H-PYRROLO[2,3-C]PYRIDIN-2-YL)-1H-INDAZOLES AND THERAPEUTIC USES THEREOF” (Samumed, LLC, priority 2015, published 2018).

Experiments:
Assay type in all cases: cell-based
[1] = system: Wnt activity (Sp5-Luc reporter, SW480 colon carcinoma cells); test: Screening assay for Wnt activity: Sp5-Luc reporter gene assay in SW480 cells; settings: Homo sapiens; for EC50: SW480 Sp5-Luc reporter, overnight incubation; for inhibition at 10 µM: SW480, read-out: percent inhibition at 10 μM
Text: The screening assay for Wnt activity is described as follows. Reporter cell lines can be generated by stably transducing cancer cell lines (e.g., colon cancer) or primary cells (e.g., IEC-6 intestinal cells) with a lentiviral construct that includes a Wnt-responsive promoter driving expression of the firefly luciferase gene.
SW480 colon carcinoma cells were transduced with a lentiviral vector expressing luciferase with a human Sp5 promoter consisting of a sequence of eight TCF/LEF binding sites. SW480 cells stably expressing the Sp5-Luc reporter gene and a hygromycin resistance gene were selected by treatment with 150 μg/mL of hygromycin for 7 days. These stably transduced SW480 cells were expanded in cell culture and used for all further screening activities. […] For Sp5-Luc reporter gene assays, the cells were plated at 4,000 cells/well in 384-well plates with medium containing 1% fetal bovine serum and incubated overnight at 37° C. and 5% CO2. Following incubation, 20 μl of BrightGlo luminescence reagent (Promega) was added to each well of the 384-well assay plates. The plates were placed on an orbital shaker for 2 min and then luminescence was quantified using the Envision (Perkin Elmer) plate reader. Readings were normalized to DMSO only treated cells, and normalized activities were utilized for EC50 calculations using the dose-response log (inhibitor) vs. response-variable slope (four parameters) nonlinear regression feature available in GraphPad Prism 5.0 (or Dotmatics).

SW480 colon cancer cells = test: Cell viability assay (CellTiter-Blue) in SW480 colon cancer cells; settings: Homo sapiens; for EC50: 96 h, SW480 cell viability, four days incubation; for inhibition at 10 µM: SW480, read-out: percent inhibition at 10 μM
Description: Representative compounds were screened using the following assay procedure to assess the effect on cell viability as described below.
Approximately 2×10^3 SW480 colon cancer cells were seeded into each well and allowed to incubate in the presence or absence of compound for four days at 37° C./5% CO2. Eight replicates of DMSO-treated cells served as controls and cells treated with compound were performed in duplicate.
After incubation, 20 μL of CellTiter-Blue (Promega) was added to each well allowed to incubate for approximately 3 hours. This reagent was a buffered solution which contains resazurin, metabolically active cells were able to reduce rezarurin (blue) into resorufin (pink) which was highly fluorescent. This measured fluorescence was used as a readout for cell viability.

[2] = system: Primary human fibroblasts derived from IPF patients (LL29 cells); test: Inhibition of the fibrotic process: αSMA staining in TGF-β1-treated LL29 fibroblasts; settings: Fibroblast; for EC50: 96 h, LL29 cells, TGF-β1 20 ng/mL, 4 days, % αSMA-positive cells; for inhibition at 10 µM: read-out: percent inhibition at 10 μM
Text: Representative compounds were screened using primary human fibroblasts (derived from IFF patients) treated with TGF-β1 to determine their ability to inhibit the fibrotic process.
K. L., et.al., “RhoA signaling modulates cyclin D1 expression in human lung fibroblasts; implications for idiopathic pulmonary fibrosis”, Respiratory Research (2006), 7(1), 88] were obtained from American Type Culture Collection (ATCC) and expanded in F12 medium supplemented with 15% Fetal Bovine Serum and Penicillin/Streptomycin.
LL29 cells are plated at 1,500 cells/well in 80 μL/well F12 medium supplemented with 1% Fetal Bovine Serum. […] Wells treated with TGF-β1 and containing DMSO were used as controls. […] Following incubation for 4 days, SYTOX green nucleic acid stain (Life Technologies [Thermo Fisher Scientific]) was added to the wells at a final concentration of 1 μM and incubated at room temperature for 30 min.

IL-6 (THP-1 cells) = test: IL-6 inhibition in THP-1 monocytes (HTRF); settings: Homo sapiens; for EC50: IL-6 inhibition, THP-1 cells, HTRF, 10-point dose-response starting from 10 μM; for inhibition at 10 µM: THP-1, read-out: percentage in parentheses printed under EC50 >10
Description: Compound Screening: THP-1 cells were cultured in basal media with 1% FBS for 24 hours before the start of the assay. […] THP-1 cells were plated at 5000 cells/well in the 384-well plates and incubated at 37° C. for 2 h. 500 ng/mL of […] was added after 2 hours and cells were incubated for another 22 hours at 37° C. Plates were spun in a centrifuge for 1 minute at 10,000 rpm and a mixture of anti-IL6 XL665, and anti-IL6 Cryptate diluted in reconstitution buffer (Cisbio Inc.) was added to each well. Following incubation for 3 hrs at room temperature, Homogeneous Time-Resolved Fluorescence (HTRF) was measured using the Envision (Perkin Elmer) at 665 nm and […]. The ratio of fluorescence at 665 nm to 620 nm was used as a readout for IL6 quantification. All samples were processed in duplicate. Readings were normalized to DMSO treated cells and normalized activities were utilized for EC50 calculations using the dose-response log (inhibitor) vs. response-variable slope (four parameters) nonlinear regression feature available in GraphPad Prism 5.0 (or Dotmatics).

Structure (SMILES) | EC50 [1] [nM] | EC50 (SW480 colon cancer cells) [nM] | EC50 (IL-6 (THP-1 cells)) [nM] | EC50 [2] [nM] | inhibition at 10 µM [1] [%] | inhibition at 10 µM (SW480 colon cancer cells) [%] | inhibition at 10 µM (IL-6 (THP-1 cells)) [%] | inhibition at 10 µM [2] [%]
Fc1cccc(-c2cncc3[nH]c(-c4n[nH]c5ccc(-c6cccnc6)cc45)cc23)c1 [Compound 4, 3-(4-(3-Fluorophenyl)-1H-pyrrolo[2,3-c]pyridin-2-yl)-5-(pyridin-3-yl)-1H-indazole] | 395 | 1380 | 783 | 1630 |  |  |  | 
O=C(Nc1cncc(-c2ccc3[nH]nc(-c4cc5c(-c6cccc(F)c6)cncc5[nH]4)c3c2)c1)C1CCCCC1 [Compound 23, N-(5-(3-(4-(3-Fluorophenyl)-1H-pyrrolo[2,3-c]pyridin-2-yl)-1H-indazol-5-yl)pyridin-3-yl)cyclohexanecarboxamide] | 620 | 513 | 108 | 193 |  |  |  | 
CCCCC(=O)Nc1cncc(-c2ccc3[nH]nc(-c4cc5c(-c6ccccc6F)cncc5[nH]4)c3c2)c1 [Compound 75] | 1760 | 1180 | > 10000 | 1160 |  |  | 39.1 | 
Fc1ccc(-c2cncc3[nH]c(-c4n[nH]c5ccc(C6=CCNCC6)cc45)cc23)cc1 [Compound 522, 3-(4-(4-Fluorophenyl)-1H-pyrrolo[2,3-c]pyridin-2-yl)-5-(1,2,3,6-tetrahydropyridin-4-yl)-1H-indazole] | 3980 | 1670 | > 10000 | 2690 |  |  | 22 | 
CCCC(=O)Nc1cncc(-c2ccc3[nH]nc(-c4cc5c(-c6ccc(F)cc6)cncc5[nH]4)c3c2)c1 [Compound 45, N-(5-(3-(4-(4-Fluorophenyl)-1H-pyrrolo[2,3-c]pyridin-2-yl)-1H-indazol-5-yl)pyridin-3-yl)butyramide] | 1510 | 1010 | 349 | 290 |  |  |  | 
Fc1cccc(-c2cncc3[nH]c(-c4n[nH]c5ccc(-c6ccncc6)cc45)cc23)c1 [Compound 18, 3-(4-(3-Fluorophenyl)-1H-pyrrolo[2,3-c]pyridin-2-yl)-5-(pyridin-4-yl)-1H-indazole] | 2110 | 988 | > 10000 | 973 |  |  | 54.3 | 
Fc1ccccc1-c1cncc2[nH]c(-c3n[nH]c4ccc(-c5cncc(CN6CCCCC6)c5)cc34)cc12 [Compound 71, 3-(4-(2-Fluorophenyl)-1H-pyrrolo[2,3-c]pyridin-2-yl)-5-(5-(piperidin-1-ylmethyl)pyridin-3-yl)-1H-indazole] | 4260 | 3420 | 3300 | 2310 |  |  |  | 
CN(C)Cc1cncc(-c2ccc3[nH]nc(-c4cc5c(-c6ccc(F)cc6)cncc5[nH]4)c3c2)c1 [Compound 41, 1-(5-(3-(4-(4-Fluorophenyl)-1H-pyrrolo[2,3-c]pyridin-2-yl)-1H-indazol-5-yl)pyridin-3-yl)-N,N-dimethylmethanamine] | 3080 | 1170 | 7050 | 1190 |  |  |  | 

Further lines, with some results ahead:

EC50 [1] [nM] | EC50 (SW480 colon cancer cells) [nM] | EC50 (IL-6 (THP-1 cells)) [nM] | Structure (SMILES) | EC50 [2] [nM] | inhibition at 10 µM [1] [%] | inhibition at 10 µM (SW480 colon cancer cells) [%] | inhibition at 10 µM (IL-6 (THP-1 cells)) [%] | inhibition at 10 µM [2] [%]
> 10000 | > 10000 | > 10000 | c1cc(-c2ccc3[nH]nc(-c4cc5c(-c6ccncc6)cncc5[nH]4)c3c2)ccn1 [Compound 130, 5-(Pyridin-4-yl)-3-(4-(pyridin-4-yl)-1H-pyrrolo[2,3-c]pyridin-2-yl)-1H-indazole] | 1230 | 24.7 | 16.6 | 20.5 | 
2010 | 976 | 2760 | CN(C)CCOc1cncc(-c2ccc3[nH]nc(-c4cc5c(-c6ccc(F)cc6)cncc5[nH]4)c3c2)c1 [Compound 531, 2-((5-(3-(4-(4-Fluorophenyl)-1H-pyrrolo[2,3-c]pyridin-2-yl)-1H-indazol-5-yl)pyridin-3-yl)oxy)-N,N-dimethylethan-1-amine] | 607 |  |  |  | 
3650 | > 10000 | 1540 | Nc1cncc(-c2ccc3[nH]nc(-c4cc5c(N6CCCCC6)cncc5[nH]4)c3c2)c1 [Compound 171, 5-(3-(4-(Piperidin-1-yl)-1H-pyrrolo[2,3-c]pyridin-2-yl)-1H-indazol-5-yl) pyridin-3-amine] | > 10000 |  | 43 |  | 9.8
3480 | > 10000 | 574 | CS(=O)(=O)NCc1cc(F)cc(-c2cncc3[nH]c(-c4n[nH]c5ccc(-c6cncc(NC(=O)Cc7ccccc7)c6)cc45)cc23)c1 [Compound 486, N-(5-(3-(4-(3-Fluoro-5-(methylsulfonamidomethyl)phenyl)-1H-pyrrolo[2,3-c]pyridin-2-yl)-1H-indazol-5-yl)pyridin-3-yl)-2-phenylacetamide] | 4770 |  | 45.4 |  | 
418 | 570 | 219 | c1cc(-c2cncc3[nH]c(-c4n[nH]c5ccc(-c6cncc(CN7CCCCC7)c6)cc45)cc23)co1 [Compound 323, 3-(4-(Furan-3-yl)-1H-pyrrolo[2,3-c]pyridin-2-yl)-5-(5-(piperidin-1-ylmethyl)pyridin-3-yl)-1H-indazole] | 1390 |  |  |  | 
> 10000 | 2160 | 6480 | Fc1ccccc1-c1cncc2[nH]c(-c3n[nH]c4ccc(-c5ccccn5)cc34)cc12 [Compound 84, 3-(4-(2-Fluorophenyl)-1H-pyrrolo[2,3-c]pyridin-2-yl)-5-(pyridin-2-yl)-1H-indazole] | 1910 | 45.9 |  |  | 
2540 | > 10000 | 42 | CS(=O)(=O)NCc1cc(F)cc(-c2cncc3[nH]c(-c4n[nH]c5ccc(-c6cncnc6)cc45)cc23)c1 [Compound 503, N-(3-Fluoro-5-(2-(5-(pyrimidin-5-yl)-1H-indazol-3-yl)-1H-pyrrolo[2,3-c]pyridin-4-yl)benzyl)methanesulfonamide] | > 10000 |  | 20.3 |  | 17.1
1830 | 1350 | 436 | Fc1ccccc1-c1cncc2[nH]c(-c3n[nH]c4ccc(-c5cncc(OC6CCNCC6)c5)cc34)cc12 [Compound 544, 3-(4-(2-Fluorophenyl)-1H-pyrrolo[2,3-c]pyridin-2-yl)-5-(5-(piperidin-4-yloxy)pyridin-3-yl)-1H-indazole] | 2760 |  |  |  | 
49 | 134 | 37 | Fc1ccccc1-c1cncc2[nH]c(-c3n[nH]c4ccc(-c5cn[nH]c5)cc34)cc12 [Compound 539, 3-(4-(2-Fluorophenyl)-1H-pyrrolo[2,3-c]pyridin-2-yl)-5-(1H-pyrazol-4-yl)-1H-indazole] | 164 |  |  |  | 
630 | 923 | 796 | Fc1ccccc1-c1cncc2[nH]c(-c3n[nH]c4ccc(-c5cncc(CN6CCC(F)(F)C6)c5)cc34)cc12 [Compound 82, 5-(5-((3,3-Difluoropyrrolidin-1-yl)methyl)pyridin-3-yl)-3-(4-(2-fluorophenyl)-1H-pyrrolo[2,3-c]pyridin-2-yl)-1H-indazole] | 648 |  |  |  | 
